Assay results taken from patent US20230355647A1, “Marker for determining anti-cancer effects of mitochondrial oxidative phosphorylation pathway inhibitor” (NANJING SHIJIANG MEDICINE TECHNOLOGY CO., LTD, priority 2020, published 2023).

How the values were obtained:
PANC-1 = assay: Cell viability (CellTiter-Glo), PANC-1; format: cell-based; settings: Homo sapiens; PANC-1 cell line, 3-4 days of culture
Description: (§1) Cell viability was detected using the Promega CellTiter-Glo kit, the kit reflected cell viability by directly measuring intracellular ATP content. The inhibitory effect (IC50 value) of Gboxin, a mitochondrial oxidative phosphorylation pathway inhibitor, on different tumor cell lines was tested in the Example. The name, source, and culture condition of each tumor cell line were as follows:
Cell line PANC-1 (ATCC, No. CRL-1469) was cultured in 10% fetal bovine serum-containing DMEM medium (+P/S).
(§2) The above tumor cells were cultured in the relevant medium (+P/S), and incubated for 3 h, then the gradient diluted Gboxin was added, and IC50 (50% inhibiting concentration) was measured after 3-4 days of culture.

[1] = system: NCI-H82 cell with overexpression of NNMT protein and/or knockdown of DNMT1 expression; assay: Sensitivity of NCI-H82 after NNMT overexpression and/or DNMT1 knockdown, intracellular ATP detection; format: cell-based, human; settings: FIG. 21, FIG. 22
Description: The NCI-H82 cell overexpressing NNMT protein was obtained by inserting the NNMT gene into NCI-H82 cell using a viral vector. The expression of DNMT1 in NCI-H82 cells was knocked down using shRNA transfection. The changes in sensitivity of cells to mitochondrial oxidative phosphorylation pathway inhibitors (Gboxin, Oligomycin A) was investigated using intracellular ATP detection methods after overexpression of NNMT protein and/or knockdown of DNMT1 expression. The experiment result was shown in FIG. 21 and FIG. 22, wherein, “Vector” referred to NCI-H82 cell transfected with empty virus as control group.

Jurkat, Clone E6-1 = assay: Cell viability (CellTiter-Glo), Jurkat, Clone E6-1; format: cell-based; settings: Homo sapiens, Clone E6-1 cell line, 3-4 days of culture
Description: as §1
Cell line Jurkat, Clone E6-1 (ATCC, No. TIB-152) was cultured in 10% fetal bovine serum-containing RPMI1640 medium (+P/S).
as §2

769-P = assay: Cell viability (CellTiter-Glo), 769-P; format: cell-based; settings: Homo sapiens; 769-P cell line, 3-4 days of culture
Description: as §1
Cell line 769-P (ATCC, No. CRL-1933) was cultured in 10% fetal bovine serum-containing RPMI1640 medium (+P/S).
as §2

SW48 = assay: Cell viability (CellTiter-Glo), SW48; format: cell-based; settings: Homo sapiens; SW48 cell line, 3-4 days of culture
Description: as §1, with “follows: Cell line SW48 (ATCC, No. CCL-231) was cultured in 10% fetal bovine serum-containing Leibovitz's L-15 medium (+P/S). […] Cell viability was detected using the Promega CellTiter-Glo kit, the kit reflected cell viability by directly measuring intracellular ATP content.” for “follows:”

NCI-H82 = assay: Cell viability (CellTiter-Glo), NCI-H82; format: cell-based; settings: Homo sapiens; NCI-H82 cell line, 3-4 days of culture
Description: as §1, with “follows: Cell line NCI-H82 (ATCC, No. HTB-175) was cultured in 10% fetal bovine serum-containing RPMI1640 medium (+P/S). […] Cell viability was detected using the Promega CellTiter-Glo kit, the kit reflected cell viability by directly measuring intracellular ATP content.” for “follows:”

ACHN = assay: Cell viability (CellTiter-Glo), ACHN; format: cell-based; settings: Homo sapiens; ACHN cell line, 3-4 days of culture
Description: as §1
Cell line ACHN (ATCC, No. CRL-1611) was cultured in 10% fetal bovine serum-containing EMEM medium (+P/S).
as §2

D283 Med = assay: Cell viability (CellTiter-Glo), D283 Med; format: cell-based; settings: Homo sapiens; D283 Med cell line, 3-4 days of culture
Description: as §1
Cell line D283 Med (ATCC, No. HTB-185) was cultured in 10% fetal bovine serum-containing EMEM medium (+P/S).
as §2

NCI-H2081 = assay: Cell viability (CellTiter-Glo), NCI-H2081; format: cell-based; settings: Homo sapiens; NCI-H2081 cell line, 3-4 days of culture
Description: as §1
Cell line NCI-H2081 (ATCC, No. CRL-5920) was cultured in 5% fetal bovine serum-containing HITES medium (+P/S).
as §2

WSU-DLCL2 = assay: Cell viability (CellTiter-Glo), WSU-DLCL2; format: cell-based; settings: Homo sapiens, WSUDLCL2; WSU-DLCL2 cell line, 3-4 days of culture
Description: as §1, with “follows: Cell line WSU-DLCL2 (DSMZ, No. ACC-575) was cultured in 10% fetal bovine serum-containing RPMI1640 medium (+P/S). […] Cell viability was detected using the Promega CellTiter-Glo kit, the kit reflected cell viability by directly measuring intracellular ATP content.” for “follows:”

ATN-1 = assay: Cell viability (CellTiter-Glo), ATN-1; format: cell-based; settings: Homo sapiens; ATN-1 cell line, 3-4 days of culture
Description: as §1
Cell line ATN-1 (RIKEN, No. RBRC-RCB1440) was cultured in RPMI1640 medium containing 10% fetal bovine serum and 0.1 mM NEAA (+P/S).
as §2

[2] = system: mitochondrial oxidative phosphorylation pathway; assay: Oxygen consumption of NCI-H82 cell, Seahorse XFe metabolic analyzer; format: cell-based, human; settings: 2 μM inhibitor, detection within 0.5 h, compared with control group, FIG. 1 (n=3)
Description: The oxygen was mainly consumed by mitochondrial oxidative phosphorylation pathway in the cell, thus the determination of oxygen consumption rate (OCR) of mitochondria could directly reflect the activity of mitochondrial oxidative phosphorylation pathway. The oxygen consumption of NCI-H82 cell in the presence or absence of Oligomycin A, Gboxin, S-Gboxin and IACS-010759, mitochondrial oxidative phosphorylation pathway inhibitors, was detected using Seahorse XFe metabolic analyzer in the present Example. NCI-H82 cell (ATCC, No. […] The control group in absence of mitochondrial oxidative phosphorylation pathway inhibitor was set. The detection of cell oxygen consumption was finished within 0.5 h.

SMILES: CCc1n(CC(=O)O[C@@H]2C[C@H](C)CC[C@H]2C(C)C)c2ccccc2[n+]1C.[Cl-] [Gboxin]
- IC50 (PANC-1): 12 µM
- sensitivity of NCI-H82 cell to the inhibitor ([1]; DNMT1 expression knocked down (sh-DNMT1 #1 or sh-DNMT1 #2) vs Vector): decreased
- sensitivity of NCI-H82 tumor cells to the inhibitor ([1]; NNMT overexpressed and DNMT1 knocked down simultaneously (ov-NNMT/sh-DNMT1 #1 and #2)): decreased more significantly
- sensitivity of NCI-H82 cell to the inhibitor ([1]; NNMT protein overexpressed alone (ov-NNMT) vs Vector): decreased
- IC50 (Jurkat, Clone E6-1): 3.51 µM
- IC50 (769-P): > 30 µM
- IC50 (SW48): 1.54 µM
- IC50 (NCI-H82): 0.398 µM
- IC50 (ACHN): 16.6 µM
- IC50 (D283 Med): 4.81 µM
- IC50 (NCI-H2081): 13.9 µM
- IC50 (WSU-DLCL2): 0.682 µM
- IC50 (ATN-1): 1.55 µM
- oxygen consumption of NCI-H82 cells [2]: significantly inhibit
